Article PMC7356940, “Comparison between Colistin Sulfate Dry Powder and Solution for Pulmonary Delivery” (Pharmaceutics, 2020)
Counter-ions that a name gives are not always drawn. Where a SMILES comes first, the peptide text is derived from it. Bridges are numbered along the chain shown (N, C = ends). [ ]: non-standard residue; d: D form. The star is where a group is joined. X1 = CC[C@H](C)CCCCC(=O)*; Dab = NCC[C@H](N)C(=O)O

Legend:
[1] = Plasma and ELF pharmacokinetics after intratracheal administration, simultaneous PK modeling; settings: male, Sprague–Dawley, rat, in vivo, rats, 0.35 mg·kg^−1, whatever the formulation used
Protocol: In vivo experiments were undertaken in compliance with EC Directive 2010/63/EU after agreement by a local ethics committee. Male Sprague–Dawley rats (n = 68) from Janvier Laboratories (Le Genest-St.-Isle, France) with weights of 324 ± 24 g (mean ± SD) were used. Animals were acclimatized for 5 days prior to experiments. They always had free access to food and water.
The target COLI dose delivered was 0.35 mg kg^−1 (base form). This dose was previously used in our lab to investigate the pharmacokinetic properties of colistin following intratracheal administration of colistin sulfate solution in rats. […] The insufflator was weighed with a 0.01 mg accuracy scale (Sartorius KB BA100) before and after insufflation to determine the exact amount of powder delivered, and the dose of colistin administered was calculated based on the animal’s weight. […]
Bronchoalveolar lavage fluid (BALF) collection was performed according to methods previously described. […] COLI and urea concentrations were determined in both plasma and BALF. […] Therefore, the COLI concentration in ELF(CELF) was calculated using Equation 1 from measured COLI concentrations in BALF (CBAL) by using urea as a marker of dilution. CELF = CBAL (Ureaplasma/UreaBAL)(1) where UreaBAL and Ureaplasma correspond to the concentrations of urea determined in BALF and plasma. […]

[2] = Apical-to-basolateral COLI transport across Calu-3 monolayers; type: in vitro ADME; settings: human; Calu-3, air-interface 15 days, apical-to-basolateral, COLI 100 mg/L (COLI or dissolved INU-COLI particles), HBSS/10 mM HEPES pH 7.4, 6 h, LC-MS/MS; read-out: COLI apparent permeability (Papp)
Protocol: (§1) Calu-3 cells were purchased from the American Type Culture Collection (Manassas, VA, USA). The cells were cultured in DMEM/Ham’s F12 (1/1) (PanBiotech) supplemented with L-glutamine (2 mM), fetal calf serum (10% v/v), and incubated at 37 °C under 90–95% of RH and 5% v/v of CO2 in the air.
(§2) Samples were taken after 60 min at 37 °C.
(§3) The determination of COLI plasma concentrations was performed based on a validated LC-MS/MS method previously described. The chromatography was performed on an Alliance 2695 system (Waters, France) with a Jupiter 300-Å column (5.0 µm, 50 mm, 2.0-mm i.d.; Waters, St.-Quentin en Yvelines, France) and a mobile phase (flow rate 0.2 mL/min) consisting of 0.1% (v/v) formic acid in acetonitrile–0.1% formic acid in water (25:75 v/v). The mass spectrometer Micromass Quattro microAPI (Waters, France) was used in the positive/ion mode. The calibration standard curve was prepared with seven samples in rat plasma with COLI base concentrations ranging between 0.0097 and 10 µg·mL^−1. For analysis of COLI in BALF and in the medium used for the COLI transport experiments, 150 µL of sample was mixed with 100 µL of plasma and analyzed as for plasma.

[3] = test system: Calu-3 cell epithelium model; experiment: as above; type: in vitro ADME
Protocol: as §1, §2, §3

[4] = test system: Calu-3 cell epithelium model; settings: cited from earlier work
Description: COLI Papp changed as a function of COLI concentration in the Calu-3 cell monolayer apical side (Figure 5). […] This value was consistent with a previous determination (0.42 × 10^−7 cm·s^−1).

[5] = previous studies; cited from earlier work
Protocol: The day before the experiment polyethylene catheters were implanted into the femoral artery of anesthetized rats. […] Accordingly, arterial blood samples were collected at 0, 0.25, 0.5, 1, 2, 3, and 4 h after pulmonary administration. Plasma was obtained and frozen at −80 °C.

[6] = fixed in the PK model; cited from earlier work
Description: Plasma and ELF COLI concentrations versus time were simultaneously analyzed by a nonlinear mixed-effects method with S-ADAPT software (v 1.52, Biomedical Simulations Resource (BMSR), Los Angeles, USA) with S-ADAPT TRAN translator [19]. The structural model (Appendix C, Figure A3) used for data analysis has been developed in a previous study to fit plasma and ELF COLI concentrations after COLI intravenous administrations and solution nebulization to rats. Briefly, the systemic pharmacokinetics of COLI were described by a two-compartment model, characterized by a central compartment (Vc ...

[7] = cited from earlier work
Description: Due to its low permeability across the lung–blood barrier, colistin methanesulfonate (CMS) is one of only four antibiotics currently used to treat Pseudomonas aeruginosa lung infections by inhalation. CMS is an anionic prodrug of colistin (COLI), which is a cationic lipopeptide mix composed mainly of two molecules: colistin A and B. Inhaled COLI therapy is almost always conducted by means of nebulization of CMS instead of the cationic COLI since the use of the latter can lead to more side effects, such as bronchoconstriction, throat irritation, and cough.

P. aeruginosa = settings: cited from earlier work
Description: However, CMS is not an optimal p ...

| Molecule | Cmax [1] | Tmax [1] | Papp A→B at 6 h, 100 mg/L [2] | fold increase in COLI Papp ([3]; Calu-3, COLI concentration changed from 100 to 4000 mg/L) | fold increase in COLI Papp ([3]; Calu-3 A-B, 6 h, COLI concentration increased to 1000 mg/L (from 100 mg/L)) | additional fold increase in COLI Papp ([3]; Calu-3 A-B, 6 h, further increase in COLI concentration to 4000 mg/L (from 1000 mg/L)) | COLI Papp, previous determination [4] | plasma COLI half-life [5] | COLI unbound plasma fraction [6] | COLI concentrations measured in the ELF ([7]; patients, six hours after inhalation of nebulized CMS solutions) | fraction of the CMS dose converted into COLI in the lung ([7]; human, in vivo) | activity against P. aeruginosa (P. aeruginosa) |
| --- | --- | --- | --- | --- | --- | --- | --- | --- | --- | --- | --- | --- |
| CC[C@H](C)CCCCC(=O)N[C@@H](CCN)C(=O)N[C@H](C(=O)N[C@@H](CCN)C(=O)N[C@H]1CCNC(=O)[C@H]([C@@H](C)O)NC(=O)[C@H](CCN)NC(=O)[C@H](CCN)NC(=O)[C@H](CC(C)C)NC(=O)[C@@H](CC(C)C)NC(=O)[C@H](CCN)NC1=O)[C@@H](C)O [COLI, Colistin sulfate salt] (X1-[Dab]T[Dab][Dab][Dab][dL]L[Dab][Dab]T; lactam 4-C) | 330 ng/mL | 30 min | 0.043 ± 0.011 ×10⁻⁶ cm/s | 10 fold | 4 fold | 2.5 fold | 0.42 10^−7 cm·s^−1 | 30 to 40 min | 45% | greater than 1000 mg/L | – | – |
| colistin methanesulfonate [CMS] | – | – | – | – | – | – | – | – | – | – | 1.4 % (w/w) | inactive |
